According to patent US7998949B2, “Bicyclic heterocycles, drugs containing said compounds, use thereof, and method for production thereof” (Boehringer Ingelheim International GmbH, priority 2007, dated 2011):

The molecules below were run against T1, human EGF-R (Homo sapiens, UniProt P00533) (assay: Inhibition of the EGFR-dependent proliferation (EGF-stimulated cell line expressing human EGF-R, Cell Titer 96 assay)). Conditions: murine haematopoietic cell line expressing functional human EGF-R; 20 ng/ml human EGF; 48 hours at 37° C.
T1 construct: expressed in transfected cells
T1 sequence (P00533 25-1210): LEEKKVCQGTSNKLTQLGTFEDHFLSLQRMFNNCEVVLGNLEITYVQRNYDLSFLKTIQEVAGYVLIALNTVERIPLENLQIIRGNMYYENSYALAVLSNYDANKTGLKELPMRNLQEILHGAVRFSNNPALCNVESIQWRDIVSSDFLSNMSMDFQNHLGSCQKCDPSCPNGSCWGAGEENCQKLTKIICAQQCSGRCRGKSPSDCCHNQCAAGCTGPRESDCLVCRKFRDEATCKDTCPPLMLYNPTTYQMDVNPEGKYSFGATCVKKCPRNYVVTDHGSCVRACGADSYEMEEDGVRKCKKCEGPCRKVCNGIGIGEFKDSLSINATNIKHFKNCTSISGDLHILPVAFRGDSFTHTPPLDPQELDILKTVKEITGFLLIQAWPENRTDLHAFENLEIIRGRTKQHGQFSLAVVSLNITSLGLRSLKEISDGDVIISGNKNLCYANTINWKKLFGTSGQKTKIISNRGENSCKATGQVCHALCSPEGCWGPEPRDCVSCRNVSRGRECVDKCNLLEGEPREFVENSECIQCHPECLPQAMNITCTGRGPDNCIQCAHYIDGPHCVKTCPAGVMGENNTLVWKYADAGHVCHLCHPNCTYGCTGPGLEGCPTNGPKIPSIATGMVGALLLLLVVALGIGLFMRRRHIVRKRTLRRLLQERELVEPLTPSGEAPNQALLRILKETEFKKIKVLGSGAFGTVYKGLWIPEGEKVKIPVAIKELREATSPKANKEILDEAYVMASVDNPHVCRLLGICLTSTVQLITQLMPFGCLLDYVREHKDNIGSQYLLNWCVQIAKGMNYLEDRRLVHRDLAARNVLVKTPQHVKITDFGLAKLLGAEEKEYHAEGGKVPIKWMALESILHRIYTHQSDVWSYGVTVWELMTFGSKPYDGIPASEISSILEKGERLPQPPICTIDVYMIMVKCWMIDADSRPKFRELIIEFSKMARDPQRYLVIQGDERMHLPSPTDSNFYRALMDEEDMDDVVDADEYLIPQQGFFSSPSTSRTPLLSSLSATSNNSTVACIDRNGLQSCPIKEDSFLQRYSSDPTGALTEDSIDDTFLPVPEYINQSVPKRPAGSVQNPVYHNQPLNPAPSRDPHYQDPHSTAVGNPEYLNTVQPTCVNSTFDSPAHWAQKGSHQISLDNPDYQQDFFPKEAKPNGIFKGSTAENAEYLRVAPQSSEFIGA
Assay type: cell-based
Procedure: A murine haematopoietic cell line is genetically modified so as to express functional human EGF-R. The proliferation of this cell line can therefore be stimulated by EGF.
The test is carried out as follows: • The cells are cultivated in RPMI/1640 medium. The proliferation is stimulated with 20 ng/ml of human EGF (Promega). To investigate the inhibitory activity of the compounds according to the invention these compounds are dissolved in 100% dimethylsulphoxide (DMSO) and added to the cultures in various dilutions, the maximum DMSO concentration being 1%. The cultures are incubated for 48 hours at 37° C.
In order to determine the inhibitory activity of the compounds according to the invention the relative cell number is measured in O.D. units using the Cell Titer 96™ AQueous Non-Radioactive Cell Proliferation Assay (Promega). The relative cell number is calculated as a percentage of the control and the concentration of active substance which inhibits the proliferation of the cells by 50% (IC50) is derived therefrom.

IC50, 1 nM:
COc1cc2ncnc(Nc3cccc(Cl)c3F)c2cc1O[C@H]1CC[C@H](N2CCOCC2)CC1 [1 (trans compound), 4-[(3-chloro-2-fluoro-phenyl)amino]-6-[trans-4-(morpholin-4-yl)-cyclohexyloxy]-7-methoxy-quinazoline]
COc1cc2ncnc(Nc3cccc(Cl)c3F)c2cc1O[C@H]1CC[C@H](N2CC[C@@H](O)C2)CC1 [1(1) (trans compound), 4-[(3-chloro-2-fluoro-phenyl)amino]-6-[(R)-trans-4-(3-hydroxy-pyrrolidin-1-yl)-cyclohexyloxy]-7-methoxy-quinazoline]
COc1cc2ncnc(Nc3cccc(Cl)c3F)c2cc1O[C@H]1CC[C@H](N2CCNC(=O)C2)CC1 [1(3) (trans compound), 4-[(3-chloro-2-fluoro-phenyl)amino]-6-[trans-4-(3-oxo-piperazin-1-yl)-cyclohexyloxy]-7-methoxy-quinazoline]
COc1cc2ncnc(Nc3cccc(Cl)c3F)c2cc1O[C@H]1CC[C@H](N2CCC[C@H]2C(N)=O)CC1 [1(5) (trans compound), 4-[(3-chloro-2-fluoro-phenyl)amino]-6-{(S)-trans-4-[2-(aminocarbonyl)-pyrrolidin-1-yl]-cyclohexyloxy]-7-methoxy-quinazoline]
COc1cc2ncnc(Nc3cccc(Cl)c3F)c2cc1O[C@H]1CC[C@H](N2CCN(C)C(=O)C2)CC1 [(36)]
COc1cc2ncnc(Nc3cccc(Cl)c3F)c2cc1O[C@H]1CC[C@H](N2CCC(C#N)CC2)CC1 [(44)]
